# Experimental data from ChEMBL document CHEMBL1201862, “PubChem BioAssay data set” (2004).
# Active and inactive are the calls of the source.
# Assays:
# [1] = luciferase reporter signal suppression in cells – H4 neuroglioma cells, luminescence, dose response (AID 1990); format: functional, cell-based
# [2] = Luminescence Cell-Based Dose Response HTS to Identify Inhibitors of 5'UTR Stem-Loop Driven Prion Protein mRNA Translation in H4 Neuroglioblastoma Cells. [Related pubchem assays: 1827 (Project Summary), 1813 (Primary HTS)]; format: functional
# [3] = alpha-synuclein stem-loop luciferase translation blockers – H4 neuroglioma cells, luminescence, confirmation (AID 1988); format: functional, cell-based
# H9c2 = experiment: cells; format: functional, cell-based; conditions: Rattus norvegicus, H9c2, Myocardium;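 note: confirmatory concentration-response retest of ultra-high-throughput screening hits for modulation of myocardial damage; cell death induced by hydrogen peroxide oxidative stress; compound pretreatment for 60 min then peroxide exposure for 2 h; potency is for protecting the cells against peroxide damage rather than for killing them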
# [4] = biological target: T1, Histone-lysine N-methyltransferase NSD2 (Homo sapiens, UniProt O96028); format: biochemical
# T1 sequence (O96028 whole entry): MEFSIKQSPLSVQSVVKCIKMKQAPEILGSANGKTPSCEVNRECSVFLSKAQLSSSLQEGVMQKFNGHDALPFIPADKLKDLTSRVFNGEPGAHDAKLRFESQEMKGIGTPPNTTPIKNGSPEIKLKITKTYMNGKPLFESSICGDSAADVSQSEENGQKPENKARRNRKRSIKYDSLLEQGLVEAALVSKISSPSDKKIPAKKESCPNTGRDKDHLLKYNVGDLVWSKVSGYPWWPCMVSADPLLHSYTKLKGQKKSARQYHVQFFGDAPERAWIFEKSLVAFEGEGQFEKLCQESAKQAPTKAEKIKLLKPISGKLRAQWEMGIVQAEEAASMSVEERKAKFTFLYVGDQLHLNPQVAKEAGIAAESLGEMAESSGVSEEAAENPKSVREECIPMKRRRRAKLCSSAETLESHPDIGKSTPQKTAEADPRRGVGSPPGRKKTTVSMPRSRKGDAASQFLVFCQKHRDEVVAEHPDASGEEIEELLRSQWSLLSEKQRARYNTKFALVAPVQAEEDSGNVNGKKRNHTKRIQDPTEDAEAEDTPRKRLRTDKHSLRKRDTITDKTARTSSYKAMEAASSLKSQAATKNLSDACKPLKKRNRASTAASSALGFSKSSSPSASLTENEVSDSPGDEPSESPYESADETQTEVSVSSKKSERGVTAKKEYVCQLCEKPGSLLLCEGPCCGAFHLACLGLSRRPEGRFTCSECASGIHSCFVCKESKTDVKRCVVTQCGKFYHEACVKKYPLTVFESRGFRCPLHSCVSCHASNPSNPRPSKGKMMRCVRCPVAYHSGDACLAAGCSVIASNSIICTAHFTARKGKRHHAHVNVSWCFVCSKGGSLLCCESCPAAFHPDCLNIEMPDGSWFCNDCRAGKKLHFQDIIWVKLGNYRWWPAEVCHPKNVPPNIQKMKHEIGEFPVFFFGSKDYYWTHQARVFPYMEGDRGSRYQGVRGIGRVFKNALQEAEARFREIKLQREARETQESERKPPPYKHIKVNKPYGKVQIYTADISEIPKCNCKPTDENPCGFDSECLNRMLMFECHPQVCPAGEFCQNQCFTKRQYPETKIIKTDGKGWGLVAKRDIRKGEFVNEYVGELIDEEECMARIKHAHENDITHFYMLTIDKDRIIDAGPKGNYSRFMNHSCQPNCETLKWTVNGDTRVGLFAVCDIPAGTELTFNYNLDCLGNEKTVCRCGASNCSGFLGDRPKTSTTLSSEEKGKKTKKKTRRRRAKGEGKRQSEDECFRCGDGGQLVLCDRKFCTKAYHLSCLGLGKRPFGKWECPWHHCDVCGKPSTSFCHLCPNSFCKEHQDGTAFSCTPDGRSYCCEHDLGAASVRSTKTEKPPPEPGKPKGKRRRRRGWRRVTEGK
# Fatty acid synthase [5] = biological target: T2, Fatty acid synthase (Homo sapiens, UniProt P49327); experiment: inhibition of human FAS-TE enzyme activity – biochemical, endpoint fluorescence intensity, uHTS hits, dose response (AID 624327); format: functional;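 note: fluorescence from hydrolysis of an O-methyl fluorescein acyl ester substrate by the enzyme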
# T2 sequence (P49327 whole entry): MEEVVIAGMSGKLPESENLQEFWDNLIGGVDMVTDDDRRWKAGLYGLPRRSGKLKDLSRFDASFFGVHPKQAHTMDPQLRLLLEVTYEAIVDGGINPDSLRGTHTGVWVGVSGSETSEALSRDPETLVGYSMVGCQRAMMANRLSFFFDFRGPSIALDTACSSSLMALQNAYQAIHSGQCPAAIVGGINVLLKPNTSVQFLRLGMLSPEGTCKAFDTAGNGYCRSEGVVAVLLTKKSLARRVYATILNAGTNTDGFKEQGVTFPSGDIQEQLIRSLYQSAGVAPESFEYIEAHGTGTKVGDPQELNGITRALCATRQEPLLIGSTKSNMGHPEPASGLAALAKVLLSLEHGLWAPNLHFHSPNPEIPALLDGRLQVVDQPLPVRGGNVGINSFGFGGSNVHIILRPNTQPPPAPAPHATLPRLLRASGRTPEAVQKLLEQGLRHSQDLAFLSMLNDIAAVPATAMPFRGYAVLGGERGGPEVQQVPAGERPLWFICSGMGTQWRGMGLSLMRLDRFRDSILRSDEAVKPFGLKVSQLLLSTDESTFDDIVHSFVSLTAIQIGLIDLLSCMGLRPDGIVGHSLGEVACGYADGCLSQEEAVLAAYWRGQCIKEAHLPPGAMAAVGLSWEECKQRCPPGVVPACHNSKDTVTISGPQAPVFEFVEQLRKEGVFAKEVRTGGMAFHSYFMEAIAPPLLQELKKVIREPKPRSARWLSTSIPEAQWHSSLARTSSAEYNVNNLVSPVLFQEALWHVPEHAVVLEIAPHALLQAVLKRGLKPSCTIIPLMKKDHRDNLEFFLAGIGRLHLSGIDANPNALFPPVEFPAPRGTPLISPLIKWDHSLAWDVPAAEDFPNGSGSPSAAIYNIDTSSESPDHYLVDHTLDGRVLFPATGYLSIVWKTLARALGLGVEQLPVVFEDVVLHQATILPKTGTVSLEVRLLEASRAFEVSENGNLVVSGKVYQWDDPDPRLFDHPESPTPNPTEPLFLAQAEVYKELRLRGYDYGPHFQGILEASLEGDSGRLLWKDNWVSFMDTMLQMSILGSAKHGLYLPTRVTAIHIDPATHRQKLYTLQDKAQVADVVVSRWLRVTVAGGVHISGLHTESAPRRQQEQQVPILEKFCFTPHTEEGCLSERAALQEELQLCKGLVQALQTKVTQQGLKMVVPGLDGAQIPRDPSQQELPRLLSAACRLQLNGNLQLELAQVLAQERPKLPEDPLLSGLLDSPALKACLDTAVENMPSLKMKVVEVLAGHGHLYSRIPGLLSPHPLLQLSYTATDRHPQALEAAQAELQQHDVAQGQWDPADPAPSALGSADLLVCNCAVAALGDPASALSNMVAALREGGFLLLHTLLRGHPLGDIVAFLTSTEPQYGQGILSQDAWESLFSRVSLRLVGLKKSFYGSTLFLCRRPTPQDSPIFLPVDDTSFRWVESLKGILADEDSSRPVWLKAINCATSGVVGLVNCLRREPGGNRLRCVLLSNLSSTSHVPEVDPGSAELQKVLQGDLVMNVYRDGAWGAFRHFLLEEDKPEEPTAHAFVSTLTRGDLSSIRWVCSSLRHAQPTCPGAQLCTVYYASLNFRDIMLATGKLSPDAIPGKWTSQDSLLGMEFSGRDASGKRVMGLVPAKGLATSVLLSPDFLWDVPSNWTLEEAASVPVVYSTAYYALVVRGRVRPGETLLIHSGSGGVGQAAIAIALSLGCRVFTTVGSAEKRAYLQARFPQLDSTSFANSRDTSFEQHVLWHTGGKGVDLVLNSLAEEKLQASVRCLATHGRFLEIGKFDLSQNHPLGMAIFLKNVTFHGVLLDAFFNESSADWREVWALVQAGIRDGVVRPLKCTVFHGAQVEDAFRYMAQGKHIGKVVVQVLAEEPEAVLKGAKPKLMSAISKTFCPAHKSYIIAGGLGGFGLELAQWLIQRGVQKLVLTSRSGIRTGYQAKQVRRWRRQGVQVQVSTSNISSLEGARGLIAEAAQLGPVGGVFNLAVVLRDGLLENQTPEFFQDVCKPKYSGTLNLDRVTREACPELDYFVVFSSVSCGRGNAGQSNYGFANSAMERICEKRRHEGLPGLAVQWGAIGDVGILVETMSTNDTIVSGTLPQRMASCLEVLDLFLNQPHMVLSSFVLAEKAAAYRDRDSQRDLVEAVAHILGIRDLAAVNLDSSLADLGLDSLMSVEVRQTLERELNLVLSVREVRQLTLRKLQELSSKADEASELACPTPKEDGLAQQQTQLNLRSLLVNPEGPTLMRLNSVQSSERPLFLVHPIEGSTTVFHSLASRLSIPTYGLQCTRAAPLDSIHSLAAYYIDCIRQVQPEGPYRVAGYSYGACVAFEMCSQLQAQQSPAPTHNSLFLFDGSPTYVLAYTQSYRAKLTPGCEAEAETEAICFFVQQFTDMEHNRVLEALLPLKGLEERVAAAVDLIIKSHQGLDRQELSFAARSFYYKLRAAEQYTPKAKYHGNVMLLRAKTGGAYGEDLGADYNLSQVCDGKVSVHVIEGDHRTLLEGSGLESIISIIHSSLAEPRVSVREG
# Fatty acid synthase [6] = biological target: T2, Fatty acid synthase; experiment: inhibition of human FAS-TE enzyme activity – biochemical, kinetic fluorescence intensity, dose response (AID 624326); format: functional;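 note: rate of fluorescence rise from hydrolysis of a fluorogenic O-methyl fluorescein ester substrate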
# Large T antigen = Large T antigen (Simian virus 40, UniProt P03070); format: functional, Betapolyomavirus macacae;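 note: Confirmatory-stage PubChem screen for compounds that inhibit SV40 T antigen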
# Chain of Large T antigen (P03070 whole entry): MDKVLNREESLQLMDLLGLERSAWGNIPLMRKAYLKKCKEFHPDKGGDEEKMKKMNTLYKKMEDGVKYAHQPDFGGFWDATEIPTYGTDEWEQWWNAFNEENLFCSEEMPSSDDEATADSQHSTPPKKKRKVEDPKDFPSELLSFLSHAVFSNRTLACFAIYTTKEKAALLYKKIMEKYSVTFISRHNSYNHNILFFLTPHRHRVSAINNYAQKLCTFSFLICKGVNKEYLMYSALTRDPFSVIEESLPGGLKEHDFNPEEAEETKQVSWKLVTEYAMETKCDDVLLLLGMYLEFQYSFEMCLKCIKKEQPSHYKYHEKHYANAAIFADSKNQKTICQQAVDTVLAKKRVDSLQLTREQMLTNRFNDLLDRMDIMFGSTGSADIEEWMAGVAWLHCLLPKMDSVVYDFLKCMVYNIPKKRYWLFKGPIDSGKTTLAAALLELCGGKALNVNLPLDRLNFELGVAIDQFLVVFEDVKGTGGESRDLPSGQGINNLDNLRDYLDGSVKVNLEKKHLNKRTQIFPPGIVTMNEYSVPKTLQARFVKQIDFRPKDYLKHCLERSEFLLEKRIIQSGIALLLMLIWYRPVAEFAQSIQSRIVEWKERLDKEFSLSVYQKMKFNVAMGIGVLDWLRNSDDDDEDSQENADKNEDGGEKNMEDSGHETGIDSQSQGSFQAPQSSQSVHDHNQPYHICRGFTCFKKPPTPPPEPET
# [7] = biological target: Luciferin 4-monooxygenase (Photinus pyralis, UniProt P08659); experiment: inhibition of purified Photinus pyralis luciferase – biochemical, luminescence, dose response (AID 1891)
# Chain of Luciferin 4-monooxygenase (P08659 whole entry): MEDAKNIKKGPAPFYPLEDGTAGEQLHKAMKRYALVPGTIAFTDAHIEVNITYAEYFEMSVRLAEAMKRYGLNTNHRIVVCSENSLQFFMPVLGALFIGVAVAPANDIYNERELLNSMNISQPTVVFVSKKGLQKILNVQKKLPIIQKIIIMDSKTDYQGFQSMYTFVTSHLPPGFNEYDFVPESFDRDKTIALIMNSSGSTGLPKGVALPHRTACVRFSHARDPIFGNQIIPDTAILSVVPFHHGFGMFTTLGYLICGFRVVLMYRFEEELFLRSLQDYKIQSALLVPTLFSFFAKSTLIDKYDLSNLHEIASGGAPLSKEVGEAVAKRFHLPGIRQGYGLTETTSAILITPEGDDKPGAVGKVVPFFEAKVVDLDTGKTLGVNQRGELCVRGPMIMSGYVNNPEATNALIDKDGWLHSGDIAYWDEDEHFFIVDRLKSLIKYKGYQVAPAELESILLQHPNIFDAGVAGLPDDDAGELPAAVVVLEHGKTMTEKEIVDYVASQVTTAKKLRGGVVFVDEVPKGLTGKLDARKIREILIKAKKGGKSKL
# [8] = Luminescence Cell-Based Dose Confirmation HTS to Identify Inhibitors of Platelet Dense Granule Release. [Related pubchem assays: 1663 (Primary HTS), 1678 (Summary of Project)]; format: functional
# [9] = microbe, parasite or virus in culture; format: functional; conditions: Mycobacterium tuberculosis
# [10] = biological target: FAD-linked sulfhydryl oxidase ALR (Homo sapiens, UniProt P55789); experiment: ALR-catalysed DTT oxidation blockers – biochemical, H2O2 detection, luminescence, cherry-pick, dose response (AID 493248)
# Chain of FAD-linked sulfhydryl oxidase ALR (P55789 whole entry): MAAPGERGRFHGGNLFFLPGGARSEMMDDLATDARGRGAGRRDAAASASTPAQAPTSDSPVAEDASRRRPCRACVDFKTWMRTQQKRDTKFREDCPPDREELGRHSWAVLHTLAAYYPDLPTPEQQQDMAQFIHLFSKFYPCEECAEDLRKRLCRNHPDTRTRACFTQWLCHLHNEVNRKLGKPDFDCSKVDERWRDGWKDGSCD
# [11] = viability of uninfected HEp-2 cells – cell-based, HTS, cytotoxicity control for RSV inhibitor project, dose response (AID 2410); format: functional; conditions: human respiratory syncytial virus
# [12] = biological target: T3, Heat shock factor protein 1 (Mus musculus, UniProt P38532); experiment: decrease of HSF1-responsive luciferase luminescence – cell-based, NIH3T3, dose retest, confirmation (AID 2382); format: functional;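 note: NIH3T3 fibroblasts with HSF1-driven luciferase reporter stressed by proteasome inhibitor MG132; luminescence from HSF1-driven luciferase expression after 8 hours of MG132 stress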
# T3 sequence (P38532 whole entry): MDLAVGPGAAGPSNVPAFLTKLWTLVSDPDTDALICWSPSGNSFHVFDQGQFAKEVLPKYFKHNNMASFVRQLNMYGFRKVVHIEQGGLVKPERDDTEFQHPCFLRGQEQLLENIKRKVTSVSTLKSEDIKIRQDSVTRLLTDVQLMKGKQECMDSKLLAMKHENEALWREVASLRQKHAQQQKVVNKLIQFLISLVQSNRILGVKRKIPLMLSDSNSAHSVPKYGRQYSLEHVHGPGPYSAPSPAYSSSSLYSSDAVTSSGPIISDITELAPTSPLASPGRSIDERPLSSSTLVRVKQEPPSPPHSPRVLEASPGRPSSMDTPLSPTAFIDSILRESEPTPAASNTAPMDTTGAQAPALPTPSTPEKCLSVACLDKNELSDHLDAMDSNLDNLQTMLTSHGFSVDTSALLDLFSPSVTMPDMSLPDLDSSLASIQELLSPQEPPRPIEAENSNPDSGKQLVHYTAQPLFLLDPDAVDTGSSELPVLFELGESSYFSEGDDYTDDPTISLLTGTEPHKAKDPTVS
compound,measurement,setting,value
COc1cc2nc(C3CCC3)nc(N3CCN(c4ccccn4)CC3)c2cc1OC,EC50,[1],15.1 µM (active)
same,EC50,[2],14.6 µM (active)
same,EC50,[3],15.2 µM (active)
same,IC50,H9c2,> 79 µM (inactive)
NC(=O)C1CCN(C2=C(NS(=O)(=O)c3ccc(Cl)cc3)C(=O)c3ccccc3C2=O)CC1,AC50,[4],14.1 µM (active)
CCN1CCCCC(=N/O)/C(=N/O)CCCC1,AC50,[4],> 20 µM (inactive)
O=C(NC12CC3CC(CC(C3)C1)C2)c1cc([N+](=O)[O-])ccc1N1CCOCC1,IC50,Fatty acid synthase [5],24.9 µM (inactive)
same,IC50,Fatty acid synthase [6],14.7 µM (active)
Cc1nn(-c2ccccc2)c2nc(O)c(CNc3ccc(N4CCOCC4)cc3)cc12,IC50,Large T antigen,5.01 µM (active)
Cn1c(SCc2cccc(Cl)c2)nc(C(F)(F)F)cc1=O,IC50,Fatty acid synthase [5],18.4 µM (active)
same,IC50,Fatty acid synthase [6],12.2 µM (active)
O=C(COC(=O)c1cc([N+](=O)[O-])ccc1N1CCOCC1)Nc1ccc(Cl)cc1,IC50,Fatty acid synthase [5],2.23 µM (active)
same,IC50,Fatty acid synthase [6],1.96 µM (active)
COc1ccccc1C(=O)Nc1ccc(C2=NNC(=O)CC2C)cc1 (stereo not drawn),EC50,[7],> 112 µM (not active)
same,EC50,[8],0.361 µM (active)
Cc1ccc(NC(=O)C2CCN(S(=O)(=O)c3ccc4c(c3)NC(=O)C(C)S4)CC2)c(Cl)c1 (stereo not drawn),CC50,[9],> 40 µM (active)
Cc1cc(F)ccc1NC(=O)c1cc(S(=O)(=O)N2CCOCC2)cn1C,EC50,[7],> 112 µM (not active)
same,EC50,[8],> 112 µM (not active)
O=C(NCc1cccnc1)C(=O)NCC(c1ccco1)N1CCN(c2ccccc2)CC1 (stereo not drawn),AC50,[10],2.78 µM (active)
C=CCn1c(=O)/c(=C/c2ccc(Cl)cc2)s/c1=C(/C#N)c1nnc2n1CCCCC2,CC50,[9],40 µM (active)
C(=N\c1ccc(Nc2ccccc2)cc1)/c1ccc2ccccc2c1,IC50,Large T antigen,8.25 µM (active)
COc1ccc(Cl)cc1-c1cc(C(=O)NCc2ccc(C(F)(F)F)cc2)[nH]n1,IC50,Fatty acid synthase [5],15.4 µM (active)
same,IC50,Fatty acid synthase [6],17.1 µM (active)
CCOC(=O)c1[nH]nc(-c2cc(CC)c(O)cc2O)c1-c1cscn1,CC50,[11],22.6 µM (active)
same,IC50,Large T antigen,20.6 µM (active)
Cn1c(S)nnc1CCNC(=O)OC(C)(C)C,AC50,[10],2.79 µM (active)
COc1ccc(C(=O)Oc2ccc(/C=N/O)cc2)cc1,EC50,[12],> 195 µM (not active)
same,AC50,[10],0.247 µM (active)
COc1cc(C(=O)Nc2ccc(NC(=O)c3ccco3)nc2)cc(OC)c1OC,IC50,H9c2,21.4 µM (active)
Cc1ccccc1C(=O)OCn1nnc2ccccc2c1=O,EC50,[7],> 112 µM (not active)
same,EC50,[8],16.2 µM (active)
O=C(CCN1C(=O)C2C3CCC(C3)C2C1=O)Nc1ccccc1Cl (stereo not drawn),EC50,[7],> 112 µM (not active)
same,EC50,[8],> 112 µM (not active)
